Data on 15 compounds can be found in US12545685B2 (Daiichi Sankyo Company, Limited, priority 2011, dated 2026).

For this assay, the target named is T1, Mdm2/p53 binding (GST-Mdm2 / His-p53) (Homo sapiens, UniProt Q00987, L33E).
T1 construct: Mdm2 partial protein having Mdm2 amino acids at positions 25 to 108
The assay can be described thus: Mdm2/p53 binding assay (HTRF, His-p53 and GST-Mdm2). Conditions: His-p53 (aa 1-132) and GST-Mdm2 (aa 25-108, L33E) 6.25 nM each; 25°C, 1 hour; values given as ranges. The method, then:
A protein dilution containing 6.25 nM each of His-p53 (fusion protein of a p53 partial protein having p53 amino acids at positions 1 to 132, with a histidine protein) and GST-Mdm2 (fusion protein of an Mdm2 partial protein having Mdm2 amino acids at positions 25 to 108 with leucine residue 33 substituted by glutamic acid, with glutathione transferase) proteins was prepared using a protein buffer solution (20 mM HEPES pH 7.4, 150 mM NaCl, 0.1% BSA). This protein dilution was added in an amount of 8 μl/well to a 384-well plate (384-well low volume NBC, Corning Inc., catalog No: 3676).
Next, a test compound was diluted with DMSO to produce a protein buffer solution containing 10% dilution, and this buffer solution was added in an amount of 4 μl/well to the plate.
Subsequently, a solution containing an XL665-labeled anti-His antibody (HTRF monoclonal anti-6HIS antibody labeled with XL665 (catalog No: 61HISXLB), Schering/Cisbio Bioassays) and a europium (Eu)-labeled anti-GST antibody (HTRF monoclonal anti-GST antibody labeled with europium cryptate, Schering/Cisbio Bioassays, catalog No: 61GSTKLB) at concentrations of 2.5 μg/ml and 0.325 μg/ml, respectively, was prepared using an antibody diluting buffer solution (20 mM HEPES pH 7.4, 150 mM NaCl, 0.1% BSA, 0.5 M KF). These dilutions were added in an amount of 8 μl/well (total reaction solution volume: 20 μl/well). Then the plate was incubated at 25° ° C. for 1 hour.
Time-resolved fluorescence at 620 and 665 nm was measured at an excitation wavelength of 320 nm using a plate reader (ARVOsx, PerkinElmer Co., Ltd. or PHERAstar, BMG LABTECH). Ratio (R) was calculated using the measured values (RFU 620 nm and RFU 665 nm) according to the following formula: […]
BI: measured value at 665 nm of reaction solution (only each buffer solution) nonsupplemented with each protein, the compound, and the antibodies
A and D: each measured value at 665 nm and 620 nm of reaction solution supplemented with only Eu-labeled anti-GST antibody solution
The R value calculated from the well supplemented with His-p53, GST-Mdm2, the test compound, and each antibody was defined as R (sample). The R value calculated from the well supplemented with His-p53, GST-Mdm2, and each antibody but without the test compound was defined as R (control). The R value calculated from the well supplemented with GST-Mdm2 the test compound, and each antibody but without His-p53 was defined as R (background). T/C was calculated from the formula shown below. An IC50 value for Mdm2/p53 binding was calculated by sigmoid fitting.

T1 sequence (Q00987 25-108 L33E): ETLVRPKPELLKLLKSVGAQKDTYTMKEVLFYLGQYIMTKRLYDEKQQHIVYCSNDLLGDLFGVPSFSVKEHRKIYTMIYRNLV

Compound `CC1(C)CCC2(CC1)N[C@@H](C(=O)N[C@@H]1CC[C@@H](c3n[nH]c(=O)o3)OC1)[C@H](c1ccnc(Cl)c1F)[C@]21C(=O)Nc2nc(Cl)ccc21` [Example 65, (3′R, 4′S,5′R)-6″-chloro-4′-(2-chloro-3-fluoropyridin-4-yl)-4,4-dimethyl-2″-oxo-N-[(3R,6S)-6-(5-oxo-4,5-dihydro-1,3,4-oxadiazol-2-yl)tetrahydro-2H-pyran-3-yl]-1″,2″-dihydrodispiro[cyclohexane-1,2′-pyrrolidine-3′,3″-pyrrolo[2,3-b]pyridine]-5′-carboxamide] yielded an IC50 of 1 to 50 nM.
Consider `COCCN(C)C(=O)[C@@H]1CC[C@@H](NC(=O)[C@@H]2NC3(CC(CF)(CF)C3)[C@@]3(C(=O)Nc4cc(Cl)ccc43)[C@H]2c2cccc(Cl)c2F)CO1` [Example 139, (3′R, 4′S,5′R)-6″-chloro-4′-(3-chloro-2-fluorophenyl)-3,3-bis(fluoromethyl)-N-[(3R,6S)-6-[(2-methoxyethyl)(methyl)carbamoyl]tetrahydro-2H-pyran-3-yl]-2″-oxo-1″,2″-dihydrodispiro[cyclobutane-1,2′-pyrrolidine-3′,3″-indole]-5′-carboxamide], for which the IC50 fell in the range of 1 to 50 nM.
For the compound `CNC(=O)[C@@H]1CC[C@@H](NC(=O)[C@@H]2NC3(CCC(C)(C)CC3)[C@@]3(C(=O)Nc4nc(Cl)ccc43)[C@H]2c2ccnc(Cl)c2F)CO1` [Example 101, (3′R, 4′S,5′R)-6″-chloro-4′-(2-chloro-3-fluoropyridin-4-yl)-4,4-dimethyl-N-[(3R,6S)-6-(methylcarbamoyl)tetrahydro-2H-pyran-3-yl]-2″-oxo-1″,2″-dihydrodispiro[cyclohexane-1,2′-pyrrolidine-3′,3″-pyrrolo[2,3-b]pyridine]-5′-carboxamide], the IC50 fell in the range of 1 to 50 nM.
`CC1(C)CCC2(CC1)N[C@@H](C(=O)N[C@H]1CC[C@](O)(CO)CC1)[C@H](c1ccnc(Cl)c1F)[C@]21C(=O)Nc2cc(Cl)ccc21` [Example 39] displayed an IC50 of 50 to 100 nM.
For `CO[C@@H]1C[C@@H](NC(=O)[C@@H]2NC3(CCC(C)(C)CC3)[C@@]3(C(=O)Nc4nc(Cl)ccc43)[C@H]2c2cccc(Cl)c2F)CO[C@@H]1CO` [Example 68, (3′R, 4′S,5′R)-6″-chloro-4′-(3-chloro-2-fluorophenyl)-N-[(3R,5R,6R)-6-(hydroxymethyl)-5-methoxytetrahydro-2H-pyran-3-yl]-4,4-dimethyl-2″-oxo-1″,2″-dihydrodispiro[cyclohexane-1,2′-pyrrolidine-3′,3″-pyrrolo[2,3-b]pyridine]-5′-carboxamide], the IC50 fell in the range of 1 to 50 nM.
To `CO[C@@H]1C[C@@H](NC(=O)[C@@H]2NC3(CC(CF)(CF)C3)[C@@]3(C(=O)Nc4cc(Cl)ccc43)[C@H]2c2cccc(Cl)c2F)CO[C@@H]1CO` [Example 129, (3′R,4′S,5′R)-6″-chloro-4′-(3-chloro-2-fluorophenyl)-3,3-bis(fluoromethyl)-N-[(3R,5R,6R)-6-(hydroxymethyl)-5-methoxytetrahydro-2H-pyran-3-yl]-2″-oxo-1″,2″-dihydrodispiro[cyclobutane-1,2′-pyrrolidine-3′,3″-indole]-5′-carboxamide] belongs 1 to 50 nM; to `COC(=O)c1cc(Cl)cc([C@H]2[C@H](C(=O)N[C@@H]3CC[C@@H](CO)OC3)NC3(CCC(C)(C)CC3)[C@@]23C(=O)Nc2cc(Cl)ccc23)c1` [Example 22, 1,5-Anhydro-2-[({(3′R, 4′R, 5′R)-6″-chloro-4′-[3-chloro-5-(methoxycarbonyl)phenyl]-4,4-dimethyl-2″-oxo-1″,2″-dihydrodispiro[cyclohexane-1,2′-pyrrolidine-3′,3″-indole]-5′-yl}carbonyl)amino]-2,3,4-trideoxy-D-erythro-hexitol], 50 to 100 nM.
In turn, `O=C(N[C@@H]1CC[C@@H](CO)OC1)[C@@H]1NC2(CC(CF)(CF)C2)[C@@]2(C(=O)Nc3cc(Cl)ccc32)[C@H]1c1ccnc(Cl)c1F` [Example 91, (3′R, 4′S,5′R)-6″-chloro-4′-(2-chloro-3-fluoropyridin-4-yl)-3,3-bis(fluoromethyl)-N-[(3R,6S)-6-(hydroxymethyl)tetrahydro-2H-pyran-3-yl]-2″-oxo-1″,2″-dihydrodispiro[cyclobutane-1,2′-pyrrolidine-3′,3″-indole]-5′-carboxamide] had a half-inhibitory concentration (IC50) of 50 to 100 nM.
`CC1(C)CCC2(CC1)N[C@@H](C(=O)N[C@H]1CC[C@H](c3noc(=O)[nH]3)CC1)[C@H](c1cccc(Cl)c1F)[C@]21C(=O)Nc2cc(Cl)ccc21` [Example 48, (3′S,4′S,5′R)-6′-chloro-4′-(3-chloro-2-fluorophenyl)-4,4-dimethyl-2″-oxo-N-[trans-4-(5-oxo-4,5-dihydro-1,2,4-oxadiazol-3-yl)cyclohexyl]-1″,2″-dihydrodispiro[cyclohexane-1,2′-pyrrolidine-3′,3″-indole]-5′-carboxamide] had an IC50 of 1 to 50 nM.
Regarding `CO[C@H]1C[C@@H](NC(=O)[C@@H]2NC3(CCC(C)(C)CC3)[C@@]3(C(=O)Nc4nc(Cl)ccc43)[C@H]2c2cccc(Cl)c2F)CO[C@@H]1CO` [Example 58, (3′R, 4′S,5′R)-6″-chloro-4′-(3-chloro-2-fluorophenyl)-N-[(3R,5S,6R)-6-(hydroxymethyl)-5-methoxytetrahydro-2H-pyran-3-yl]-4,4-dimethyl-2″-oxo-1″,2″-dihydrodispiro[cyclohexane-1,2′-pyrrolidine-3′,3″-pyrrolo[2,3-b]pyridine]-5′-carboxamide], the IC50 was in the range of 50 to 100 nM.
As to `COC(=O)[C@@H]1CC[C@@H](NC(=O)[C@@H]2NC3(CCC(C)(C)CC3)[C@@]3(C(=O)Nc4cc(Cl)ccc43)[C@H]2c2ccnc(Cl)c2F)CO1` [Example 173, Methyl (2S,5R)-5-({[(3′S,4′S,5′R)-6″-chloro-4′-(2-chloro-3-fluoropyridin-4-yl)-4,4-dimethyl-2″-oxo-1″,2″-dihydrodispiro[cyclohexane-1,2′-pyrrolidine-3′,3′-indole]-5′-yl]carbonyl}amino)tetrahydro-2H-pyran-2-carboxylate], the IC50 lay in the range of 50 to 100 nM.
In turn, `COC[C@]1(O)CC[C@@H](NC(=O)[C@@H]2NC3(CCC(C)(C)CC3)[C@@]3(C(=O)Nc4cc(Cl)ccc43)[C@H]2c2ccnc(Cl)c2F)CC1` [Example 61, (3′R, 4′S,5′R)-6″-chloro-4′-(2-chloro-3-fluoropyridin-4-yl)-N-[cis-4-hydroxy-4-(methoxymethyl)cyclohexyl]-4,4-dimethyl-2″-oxo-1″,2″-dihydrodispiro[cyclohexane-1,2′-pyrrolidine-3′,3″-indole]-5′-carboxamide] returned a half-maximal inhibitory concentration (IC50) of 50 to 100 nM.
In the case of `CC1(C)CCC2(CC1)N[C@@H](C(=O)N[C@H]1CC[C@H](N3CC(O)C3)CC1)[C@H](c1cccc(Cl)c1F)[C@]21C(=O)Nc2cc(Cl)ccc21` (relative stereo) [Example 12, (3′R, 4′S,5′R)-6″-chloro-4′-(3-chloro-2-fluorophenyl)-N-[trans-4-(3-hydroxyazetidin-1-yl)cyclohexyl]-4,4-dimethyl-2″-oxo-1″,2″-dihydrodispiro[cyclohexane-1,2′-pyrrolidine-3′,3″-indole]-5′-carboxamide], the IC50 lay in the range of 1 to 50 nM.
Compound `CC1(C)CCC2(CC1)N[C@@H](C(=O)N[C@@H]1CC[C@@H](C(=O)NC3CC3)OC1)[C@H](c1ccnc(Cl)c1F)[C@]21C(=O)Nc2nc(Cl)ccc21` [Example 102, (3′R, 4′S,5′R)-6″-chloro-4′-(2-chloro-3-fluoropyridin-4-yl)-N-[(3R,6S)-6-(cyclopropylcarbamoyl)tetrahydro-2H-pyran-3-yl]-4,4-dimethyl-2″-oxo-1″,2″-dihydrodispiro[cyclohexane-1,2′-pyrrolidine-3′,3″-pyrrolo[2,3-b]pyridine]-5′-carboxamide] came in with an IC50 of 1 to 50 nM.
To `O=C(N[C@@H]1CC[C@@H](c2nnco2)OC1)[C@@H]1NC2(CC(CF)(CF)C2)[C@@]2(C(=O)Nc3cc(Cl)ccc32)[C@H]1c1cccc(Cl)c1F` [Example 136, (3′R, 4′S,5′R)-6″-chloro-4′-(3-chloro-2-fluorophenyl)-3,3-bis(fluoromethyl)-N-[(3R,6S)-6-(1,3,4-oxadiazol-2-yl)tetrahydro-2H-pyran-3-yl]-2″-oxo-1″,2″-dihydrodispiro[cyclobutane-1,2′-pyrrolidine-3′,3″-indole]-5′-carboxamide] belongs 1 to 50 nM.
